Data from article PMC9095486, “Reversible RNA phosphorylation stabilizes tRNA for cellular thermotolerance” (Nature, 2022).

Tests used:
TkArkI [1] = target: T1, TkArkI (Thermococcus kodakarensis, UniProt Q5JDQ4); test: LC-MS of ligands extracted from purified protein; type: binding; details: co-purified from E. coli
T1 construct: gene TK2051; full length, codon-optimised synthetic gene in pE-SUMO-TEV, E. coli; His6-SUMO tag cleaved by Ulp1; residues 1-216 described in structure

TkArkI [2] = target: T1, TkArkI; test: X-ray crystallography, […] Å; LC-MS of bound ligand; details: co-purified from E. coli; putative ATP-binding pocket

T1 sequence (Q5JDQ4 entry or part of it): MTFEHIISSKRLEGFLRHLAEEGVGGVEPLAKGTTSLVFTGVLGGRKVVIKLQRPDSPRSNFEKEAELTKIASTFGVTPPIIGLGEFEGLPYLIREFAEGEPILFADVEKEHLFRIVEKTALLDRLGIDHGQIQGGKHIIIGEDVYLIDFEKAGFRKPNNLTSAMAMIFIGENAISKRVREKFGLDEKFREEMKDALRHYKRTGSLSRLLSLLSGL

| Structure (SMILES) | LC-MS of ligands extracted from purified protein (TkArkI [1]) | X-ray crystallography, 1.8 Å; LC-MS of bound ligand (TkArkI [2]) |
| --- | --- | --- |
| Nc1nc2c(ncn2[C@H]2C[C@H](O)[C@@H](CO)O2)c(=O)[nH]1 [deoxyguanosine] | We confirmed guanosine (and deoxyguanosine) as a ligand that tightly binds to TkArkI |  |
| Nc1nc2c(ncn2[C@@H]2O[C@H](CO)[C@@H](O)[C@H]2O)c(=O)[nH]1 [guanosine] |  | we observed a clear electron density for guanosine in the cleft of the two lobes |
